Reference: paper PMC6767236, “Selective Cannabinoid 2 Receptor Agonists as Potential Therapeutic Drugs for the Treatment of Endotoxin-Induced Uveitis” (Molecules, 2019)

Legend:
[1] = Plasma protein binding (equilibrium dialysis), mouse plasma; type: in vitro ADME; conditions: C57, pH 7.4, read-out: Plasma Protein Binding: FREE Fraction mouse
Description: Pooled and frozen plasma from selected species were obtained from commercial suppliers […]
(human […] and mouse […]3-C57; BioreclamationIV, NY, USA). Teflon […]
equilibrium dialysis plates (96-well, 150 μL, half-cell capacity) and cellulose membranes (12–14 kDa molecular weight cut-off) were purchased from HT-Dialysis (Gales Ferry, Connecticut). Both biological matrix and phosphate buffer pH were adjusted to 7.4 on the day of the experiment. The reference substance was diazepam.
The determination of unbound compound was performed using a 96-well format equilibrium dialysis device with a molecular weight cut-off membrane of 12 to 14 kDa. […]
At equilibrium, the unbound drug concentration in the biological matrix compartment of the equilibrium dialysis apparatus is the same as the concentration of the compound in the buffer compartment. Thus, the percent unbound fraction was be calculated by determining the compound concentrations in the buffer and matrix compartments after dialysis as follows: % fraction unbound = 100 × buffer concentration after dialysis/matrix concentration after dialysis. […]
P-glycoprotein (permeability-glycoprotein (P-gp), also known as multidrug resistance protein 1) is the most studied and best characterized drug transporter. […] The effect of P-gp was measured by expressing the efflux ratio of the unidirectional A > B and B > A Papp values. […]

[2] = tested on: adhesion of adoptively-transferred leukocytes in the iridial microcirculation; assay: Adoptive transfer of WT leukocytes into neutrophil-depleted CB2R-/- mice with EIU; type: in vivo; conditions: neutrophil-depleted CB2R-/- recipients with EIU, topical
Description: For adoptive transfer experiments, calcein-AM-labelled leukocytes were visualized by fluorescence (495 nm excitation) in the iridial microcirculation using a Leica DMLM epifluorescence microscope (Leica, Wetzlar, Germany) equipped with a mercury-arc light source (LEG EBQ 100, Carl Zeiss, Jena, Germany) and captured by a CCD video camera (SIT 68, DAGE MTI, Michigan, IN, USA). Videos were recorded using WinDV Capture software (Mourek, Prague, Czech Republic) and stored on an external hard drive.
During IVM animals were placed on a heating pad in a stereotactic frame, and Tear-Gel® (Novartis Pharmaceuticals Canada Inc., Dorval, QC, Canada) was applied to their cornea. The iris was divided into four equal quadrants by drawing two superficial lines on the cornea, lengthwise and widthwise. […] Two to four videos of each quadrant were recorded for 30 s each. Videos were analyzed off-line without knowledge of the treatment groups. […] Using ImageJ software (National Institute of Health, Bethesda, MD, USA) the number of adherent leukocytes within each vessel segment was calculated by measuring the diameter and length of vessel segment studied, assuming a cylindrical geometry of blood vessels. Adherent leukocytes were expressed as number of cells per mm^2 of endothelial surface. […] The number of rolling leukocytes was counted for 30 s and used to calculate the number of rolling leukocytes per min. […]

SMILES: CC(C)(C)c1nc(N2CC[C@H](O)C2)c2nnn(Cc3nnnn3C3CC3)c2n1 [RO6871304, (3S)-1-{5-tert-butyl-3-[(1-cyclopropyl-1H-tetrazol-5-yl)methyl]-3H-[1,2, 3]triazolo[4,5-d]pyrimidin-7-yl}pyrrolidin-3-ol]
- fraction unbound at 5 h, 1000 nM [1]: 0.031
- adhesion of adoptively-transferred leukocytes [2]: did not affect adhesion of adoptively-transferred leukocytes
